{
  "source": "patent US9586914B2",
  "about": "“Modulators of C3a receptors” (THE UNIVERSITY OF QUEENSLAND, priority 2011, dated 2017)",
  "target": "T1, C3a receptor (C3aR) (Homo sapiens, UniProt Q16581)",
  "T1 construct": "peripheral blood mononuclear cells were isolated from buffy coat (obtained from Australian Red Cross Blood Service, Kelvin Grove); endogenous in cells; host or cells: primary human monocyte-derived macrophages (HMDM) differentiated from CD14+ monocytes of donor buffy coat",
  "T1 sequence (Q16581 1-482)": "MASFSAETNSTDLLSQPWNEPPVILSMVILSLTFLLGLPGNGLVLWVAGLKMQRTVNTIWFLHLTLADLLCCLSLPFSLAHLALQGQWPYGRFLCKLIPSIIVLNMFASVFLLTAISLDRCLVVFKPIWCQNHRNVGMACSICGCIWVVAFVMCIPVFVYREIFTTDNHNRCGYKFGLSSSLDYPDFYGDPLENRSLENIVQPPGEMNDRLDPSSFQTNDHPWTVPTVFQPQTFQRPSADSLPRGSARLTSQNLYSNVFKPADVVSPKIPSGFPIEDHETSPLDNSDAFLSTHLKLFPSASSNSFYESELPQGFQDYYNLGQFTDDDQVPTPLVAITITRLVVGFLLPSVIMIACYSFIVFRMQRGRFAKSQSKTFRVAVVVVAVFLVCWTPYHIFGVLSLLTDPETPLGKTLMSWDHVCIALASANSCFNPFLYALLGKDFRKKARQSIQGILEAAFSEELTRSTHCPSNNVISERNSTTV",
  "assay": "Competitive binding with [^125I]-C3a in HMDM",
  "conditions": "Table 6, competitive binding with [^125I]-C3a, HMDM",
  "in_short": "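IC50 values are geometric means, with −log IC50 computed per experiment and given as arithmetic mean ± SE. Cells were CD14+ monocytes from buffy-coat PBMC, differentiated to macrophages and used on day 7. Unbound label was removed by GF/B filtration with 3 cold washes in 50 mM Tris-HCl pH 7.4.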",
  "data": [
    {"smiles": "CC(C)C[C@H](NC(=O)c1c[nH]c2ccccc12)c1nc(C(=O)N[C@@H](CCCNC(=N)N)C(=O)O)co1", "note": "[Compound 8, 3-Indole Carboxylic Acid-Leucine-Oxazole-Arginine-OH]", "values": [
      {"measurement": "pIC50 ± SEM", "value": "8.03 ± 0.05"},
      {"measurement": "IC50", "setting": "read-out: IC50 (converted)", "value": 9, "unit": "nM"}
    ]}
  ]
}
